Test: xn = mol fraction of the nth substance listed
Settings: Liquid

CCCCCl [1-chlorobutane] + CCCCCC
mass density [kg/m3]
Settings | x1 = 0.1099 | x1 = 0.212 | x1 = 0.2925 | x1 = 0.316 | x1 = 0.405 | x1 = 0.4978 | x1 = 0.5975 | x1 = 0.6869 | x1 = 0.8294 | x1 = 0.9025
293.15 K, 25000 kPa | – | – | – | – | – | – | – | 825.76 | 861.98 | 881.68
293.15 K, 30000 kPa | 705.17 | 724.84 | 741.13 | 745.88 | 764.76 | 785.2 | 808.12 | 829.7 | 865.95 | 885.66
293.15 K, 35000 kPa | 708.81 | 728.53 | 744.84 | 749.61 | 768.53 | 788.98 | 811.92 | 833.53 | 869.81 | 889.53
298.15 K, 100 kPa | 674.32 | 693.72 | 709.76 | 714.52 | 733.09 | 753.4 | 776.16 | 797.59 | 833.73 | 853.37
298.15 K, 2500 kPa | 676.93 | 696.34 | 712.38 | 717.11 | 735.72 | 756.03 | 778.78 | 800.23 | 836.3 | 855.94
298.15 K, 5000 kPa | 679.56 | 698.96 | 715.02 | 719.75 | 738.37 | 758.67 | 781.41 | 802.86 | 838.91 | 858.53
298.15 K, 10000 kPa | 684.48 | 703.92 | 719.98 | 724.72 | 743.38 | 763.66 | 786.38 | 807.84 | 843.87 | 863.49
298.15 K, 15000 kPa | 689.11 | 708.6 | 724.66 | 729.39 | 748.1 | 768.37 | 791.12 | 812.57 | 848.59 | 868.18
298.15 K, 20000 kPa | 693.45 | 712.95 | 729.06 | 733.8 | 752.52 | 772.82 | 795.57 | 817.04 | 853.07 | 872.66
298.15 K, 25000 kPa | 697.55 | 717.1 | 733.24 | 737.94 | 756.74 | 777.05 | 799.82 | 821.3 | 857.35 | 876.94
298.15 K, 30000 kPa | 701.45 | 721.06 | 737.22 | 741.91 | 760.75 | 781.09 | 803.9 | 825.39 | 861.46 | 881.06
298.15 K, 35000 kPa | 705.16 | 724.8 | 741 | 745.72 | 764.57 | 784.94 | 807.76 | 829.27 | 865.37 | 884.99
303.15 K, 100 kPa | 669.66 | 689.16 | 704.96 | 709.76 | 728.25 | 748.32 | 770.96 | 792.32 | 828.52 | 847.81
303.15 K, 2500 kPa | 672.37 | 691.9 | 707.69 | 712.51 | 730.98 | 751.02 | 773.66 | 795.01 | 831.2 | 850.48
303.15 K, 5000 kPa | 675.06 | 694.62 | 710.41 | 715.21 | 733.71 | 753.76 | 776.4 | 797.74 | 833.88 | 853.16
303.15 K, 10000 kPa | 680.26 | 699.79 | 715.6 | 720.44 | 738.89 | 759.01 | 781.67 | 802.98 | 839.08 | 858.38
303.15 K, 15000 kPa | 685.01 | 704.53 | 720.39 | 725.23 | 743.69 | – | – | – | – | –

Source: the NIST ThermoML archive (doi:10.1021/je800012v)
